What was measured:
POAAN [1] = assay: Pre-emergence action against POAAN, 1280 g/ha; type: in vivo, Poa annua; conditions: visual scoring after about 3 weeks vs untreated controls, 100% = plants have died, 0% = like control plants
How it was run: (§1)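 In greenhouse pots of sandy loam, sown weed seeds were covered with soil and treated pre-emergence with the compound in water (600 L/ha, 0.5% additive). Efficacy was assessed visually as percent of untreated control after about 3 weeks.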

ABUTH = assay: Post-emergence action against ABUTH, 1.28 kg/ha; type: in vivo, Abutilon theophrasti; conditions: dosage 1280 g/ha, visual rating about 3 weeks after treatment vs untreated controls (100% = plants died)
How it was run: (§2)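 Activity scored visually roughly 3 weeks after treatment against untreated plants (0% = as control, 100% = dead). Plants grown in sandy loam in greenhouse, treated at one-leaf stage, 2–3 weeks post-sowing, with WP/EC spray containing 0.5% additive at 600 l/ha.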

AMARE [2] = assay: Post-emergence action against AMARE, 1.28 kg/ha; type: in vivo, Amaranthus retroflexus; conditions: dosage 1280 g/ha, visual rating about 3 weeks after treatment vs untreated controls (100% = plants died)
How it was run: as §2

AMARE [3] = assay: Pre-emergence action against AMARE, 1280 g/ha; type: in vivo, Amaranthus retroflexus; conditions: scored visually after about 3 weeks vs untreated controls (100% = plants have died)
How it was run: as §1

VERPE [4] = assay: Post-emergence action against VERPE, 1.28 kg/ha; type: in vivo, Veronica persica; conditions: dosage 1280 g/ha, visual rating about 3 weeks after treatment vs untreated controls (100% = plants died)
How it was run: as §2

STEME [5] = assay: Pre-emergence action against STEME, 1280 g/ha; type: in vivo, Stellaria media; conditions: scored visually after about 3 weeks vs untreated controls (100% = plants have died)
How it was run: as §1

KCHSC = assay: Post-emergence action against KCHSC, 1.28 kg/ha; type: in vivo, Bassia scoparia; conditions: dosage 1280 g/ha, visual rating about 3 weeks after treatment vs untreated controls (100% = plants died)
Experimental: (§3) • a) Seeds of mono- and dicotyledonous weed plants are placed in plastic pots in sandy loam soil (twin sowing with one species each of mono- or dicotyledonous weed plants per pot), covered with soil and cultivated in a greenhouse under controlled growth conditions. 2 to 3 weeks after sowing, the test plants are treated at the one-leaf stage. The compounds of the invention, formulated in the form of wettable powders (WP) or as emulsion concentrates (EC), are applied to the green parts of the plants as aqueous suspension or emulsion with addition of 0.5% additive at a water application rate equivalent to 600 litres per hectare. After the test plants have been kept in the greenhouse under optimum growth conditions for about 3 weeks, the activity of the preparations is rated visually in comparison to untreated controls. For example, 100% activity=the plants have died, 0% activity=like control plants. As shown by the results, compounds of the general formula (I) of the invention, in post-emergence treatment, have very good herbicidal efficacy (90% to 100% herbicidal action) against harmful plants such as Abutilon theophrasti, Digitaria sanguinalis, Echinochloa crus-galli, Matricaria inodora, Poa annua, at an application rate of 1.28 kg of active substance per hectare.

DIGSA [6] = assay: Pre-emergence action against DIGSA, 1280 g/ha; type: in vivo, Digitaria sanguinalis; conditions: visual scoring after about 3 weeks vs untreated controls, 100% = plants have died, 0% = like control plants
How it was run: as §1

ECHCG [7] = assay: Pre-emergence action against ECHCG, 1280 g/ha; type: in vivo, Echinochloa crus-galli; conditions: visual scoring after about 3 weeks vs untreated controls, 100% = plants have died, 0% = like control plants
How it was run: as §1

VERPE [8] = assay: Pre-emergence action against VERPE, 1280 g/ha; type: in vivo, Veronica persica; conditions: scored visually after about 3 weeks vs untreated controls (100% = plants have died)
How it was run: as §1

POAAN [9] = assay: Post-emergence action against POAAN, 1.28 kg/ha; type: in vivo, Poa annua; conditions: dosage 1280 g/ha, visual rating about 3 weeks after treatment vs untreated controls
How it was run: as §2

MATIN [10] = assay: Pre-emergence action against MATIN, 1280 g/ha; type: in vivo, Tripleurospermum inodorum (Matricaria inodora); conditions: scored visually after about 3 weeks vs untreated controls (100% = plants have died)
How it was run: as §1

ALOMY [11] = assay: Post-emergence action against ALOMY, 1.28 kg/ha; type: in vivo, Alopecurus myosuroides; conditions: dosage 1280 g/ha, visual rating about 3 weeks after treatment vs untreated controls
How it was run: as §2

LOLRI [12] = assay: Pre-emergence action against LOLRI, 1280 g/ha; type: in vivo, Lolium rigidum; conditions: visual scoring after about 3 weeks vs untreated controls, 100% = plants have died, 0% = like control plants
How it was run: as §1

SETVI [13] = assay: Pre-emergence action against SETVI, 1280 g/ha; type: in vivo, Setaria viridis; conditions: visual scoring after about 3 weeks vs untreated controls, 100% = plants have died, 0% = like control plants
How it was run: as §1

ALOMY [14] = assay: Pre-emergence action against ALOMY, 1280 g/ha; type: in vivo, Alopecurus myosuroides; conditions: visual scoring after about 3 weeks vs untreated controls, 100% = plants have died, 0% = like control plants
How it was run: as §1

MATIN [15] = assay: Post-emergence action against MATIN, 1.28 kg/ha; type: in vivo, Tripleurospermum inodorum (Matricaria inodora); conditions: dosage 1280 g/ha, visual rating about 3 weeks after treatment vs untreated controls (100% = plants died)
How it was run: as §2

DIGSA [16] = assay: Post-emergence action against DIGSA, 1.28 kg/ha; type: in vivo, Digitaria sanguinalis; conditions: dosage 1280 g/ha, visual rating about 3 weeks after treatment vs untreated controls
How it was run: as §2

ECHCG [17] = assay: Post-emergence action against ECHCG, 1.28 kg/ha; type: in vivo, Echinochloa crus-galli; conditions: dosage 1280 g/ha, visual rating about 3 weeks after treatment vs untreated controls
How it was run: as §2

SETVI [18] = assay: Post-emergence action against SETVI, 1.28 kg/ha; type: in vivo, Setaria viridis; conditions: dosage 1280 g/ha, visual rating about 3 weeks after treatment vs untreated controls
How it was run: as §2

STEME [19] = assay: Post-emergence action against STEME, 1.28 kg/ha; type: in vivo, Stellaria media; conditions: dosage 1280 g/ha, visual rating about 3 weeks after treatment vs untreated controls (100% = plants died)
How it was run: as §2

LOLRI [20] = assay: Post-emergence action against LOLRI, 1.28 kg/ha; type: in vivo, Lolium rigidum; conditions: dosage 1280 g/ha, visual rating about 3 weeks after treatment vs untreated controls
Experimental: as §3

Compound	Pre-emergence action against POAAN (POAAN [1])	Post-emergence action against ABUTH (ABUTH)	Post-emergence action against AMARE (AMARE [2])	Pre-emergence action against AMARE (AMARE [3])	Post-emergence action against VERPE (VERPE [4])	Pre-emergence action against STEME (STEME [5])	Post-emergence action against KCHSC (KCHSC)	Pre-emergence action against DIGSA (DIGSA [6])	Pre-emergence action against ECHCG (ECHCG [7])	Pre-emergence action against VERPE (VERPE [8])	Post-emergence action against POAAN (POAAN [9])	Pre-emergence action against MATIN (MATIN [10])	Post-emergence action against ALOMY (ALOMY [11])	Pre-emergence action against LOLRI (LOLRI [12])	Pre-emergence action against SETVI (SETVI [13])	Pre-emergence action against ALOMY (ALOMY [14])	Post-emergence action against MATIN (MATIN [15])	Post-emergence action against DIGSA (DIGSA [16])	Post-emergence action against ECHCG (ECHCG [17])	Post-emergence action against SETVI (SETVI [18])	further results
N#CCCNC(=O)COc1nn(-c2ccc(F)cc2F)c(-c2ccc(F)nc2)c1Br [Example X-029]	100%	90%	90%	100%	100%	90%	90%														
N#CCCNC(=O)COc1nn(-c2ccccc2F)c(-c2ccc(F)nc2)c1Br [Example X-032]	100%			100%	100%	100%	90%	100%	100%	100%	100%	100%	100%	100%	100%	100%	90%				
CONC(=O)COc1nn(-c2ccc(F)cc2F)c(-c2ccc(F)cn2)c1Br [II-004]	100%				100%		90%	100%					100%	90%		100%		100%			
CCOC(=O)COc1nn(-c2ccccc2F)c(-c2ccc(F)cn2)c1I [II-012]	100%	90%	100%	90%	100%	100%	100%	100%	90%	90%	100%	90%	100%	100%	100%	90%	90%	90%	100%	90%	
CCOC(=O)COc1nn(-c2ccccc2F)c(-c2ccnnc2)c1Br [IV-001, Ethyl {[4-bromo-1-(2-fluorophenyl)-5-(pyridazin-4-yl)-1H-pyrazol-3-yl]oxy}acetate]							90%						100%							100%	pest or weed control at 1280 g/ha (ECHCG [17]; Echinochloa crus-galli, 504 h): 90%; pest or weed control at 1280 g/ha (POAAN [1]; Poa annua, 504 h): 100%; pest or weed control at 1280 g/ha (ECHCG [7]; Echinochloa crus-galli, 504 h): 90%; pest or weed control at 1280 g/ha (POAAN [9]; Poa annua, 504 h): 100%; pest or weed control at 1280 g/ha (MATIN [10]; Tripleurospermum inodorum, 504 h): 90%; pest or weed control at 1280 g/ha (LOLRI [12]; Lolium rigidum, 504 h): 100%; pest or weed control at 1280 g/ha (SETVI [13]; Setaria viridis, 504 h): 100%; pest or weed control at 1280 g/ha (AMARE [3]; Amaranthus retroflexus, 504 h): 90%; pest or weed control at 1280 g/ha (VERPE [4]; Veronica persica, 504 h): 90%; pest or weed control at 1280 g/ha (STEME [5]; Stellaria media, 504 h): 90%
O=C(O)COc1nn(-c2ccc(F)cc2)c(-c2ccc(F)nc2)c1I [VII-069]	100%	90%		100%	100%	100%	90%	100%		100%		90%	100%	90%	100%		90%	100%			Post-emergence action against STEME (STEME [19]): 90%
CCOC(=O)COc1nn(-c2ccc(F)cc2)c(-c2ccc(F)nc2)c1I [VII-102]	100%		100%	90%	100%	90%	90%	100%	100%	100%	100%	90%	100%	100%	100%	90%	100%				
COC(=O)CNC(=O)COc1nn(-c2ccccc2F)c(-c2ccnc(F)c2)c1Br [VIII-009]	100%		90%	100%	100%	100%	90%	100%	100%	100%	100%	100%	100%	90%	100%		90%	100%	100%	90%	
COC(=O)COc1nn(-c2cc(F)ccc2F)c(-c2ccnc(F)c2)c1Br [VIII-010]	100%		100%	100%	90%	100%	90%	100%	100%	100%	100%	100%	100%	100%	100%	100%	100%	100%	100%	100%	Post-emergence action against LOLRI (LOLRI [20]): 100%; Post-emergence action against STEME (STEME [19]): 100%

From US12180187B2, “1-phenyl-5-azinylpyrazolyl-3-oxyalkyl acids and their use for controlling unwanted plant growth” (BAYER AKTIENGESELLSCHAFT, priority 2019, dated 2024)
